Experimental data as given in ChEMBL document CHEMBL1201862, “PubChem BioAssay data set” (2004).
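48-hour exposure; five concentrations; linearly interpolated endpoints. Here, GI50 denotes the concentration required for 50% inhibition of growth.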 Calls of active or inactive are those of the source. No stated cut-off is given here; in the data, active = GI50 up to about 1.1 µM and inactive = higher.

How the values were obtained:
Assay in all cases: growth of human tumour cells (NCI), 48 h
Malme-3M = system: Malme-3M
K562 = system: K562
DMS-273 = system: DMS-273
SNB-75 = system: SNB-75
XF498 = system: XF498
M19-MEL = system: M19-MEL
SF-295 = system: SF-295
DLD-1 = system: DLD-1
TK-10 = system: TK-10
NCI-H460 = system: NCI-H460
IGROV-1 = system: IGROV-1
HCT-116 = system: HCT-116
OVCAR-5 = system: OVCAR-5
HCC 2998 = system: HCC 2998
LOX IMVI = system: LOX IMVI
U-251 = system: U-251
EKVX = system: EKVX
OVCAR-8 = system: OVCAR-8
DMS-114 = system: DMS-114
HT-29 = system: HT-29
SF-539 = system: SF-539
MOLT-4 = system: MOLT-4
A549 = system: A549
KM12 = system: KM12
SK-MEL-5 = system: SK-MEL-5
RPMI-8226 = system: RPMI-8226
HOP-92 = system: HOP-92
COLO 205 = system: COLO 205
SK-MEL-2 = system: SK-MEL-2
RXF 631 = system: RXF 631
NCI-H522 = system: NCI-H522
SK-MEL-28 = system: SK-MEL-28
ACHN = system: ACHN
SW-620 = system: SW-620
SK-OV-3 = system: SK-OV-3
UACC-62 = system: UACC-62
LXFL 529 = system: LXFL 529
SF-268 = system: SF-268
786-0 = system: 786-0
M14 = system: M14
NCI-H23 = system: NCI-H23
HL-60 = system: HL-60
SNB-78 = system: SNB-78
RXF 393 = system: RXF 393
A498 = system: A498
OVCAR-3 = system: OVCAR-3
CCRF-CEM = system: CCRF-CEM
HOP-62 = system: HOP-62
KM-20L2 = system: KM-20L2
UACC-257 = system: UACC-257
HCT-15 = system: HCT-15
SNB-19 = system: SNB-19
UO-31 = system: UO-31
SN12C = system: SN12C
NCI-H226 = system: NCI-H226
CAKI-1 = system: CAKI-1
OVCAR-4 = system: OVCAR-4
SR = system: SR

## C/C(CC(=O)Nc1ccc(Cl)cc1)=N\NC(N)=S
Malme-3M
  GI50: > 100 µM (inactive)
K562
  GI50: 5.43 µM (inactive)
DMS-273
  GI50: 8.09 µM (inactive)
SNB-75
  GI50: > 100 µM (inactive)
XF498
  GI50: > 100 µM (inactive)
M19-MEL
  GI50: 66.5 µM (inactive)
SF-295
  GI50: 29 µM (inactive)
DLD-1
  GI50: 18.3 µM (inactive)
TK-10
  GI50: > 100 µM (inactive)
NCI-H460
  GI50: 45.5 µM (inactive)
IGROV-1
  GI50: > 100 µM (inactive)
HCT-116
  GI50: 71.4 µM (inactive)
OVCAR-5
  GI50: > 100 µM (inactive)
HCC 2998
  GI50: 30.9 µM (inactive)
LOX IMVI
  GI50: 1.81 µM (inactive)
U-251
  GI50: > 100 µM (inactive)
EKVX
  GI50: > 100 µM (inactive)
OVCAR-8
  GI50: > 100 µM (inactive)
DMS-114
  GI50: 39.1 µM (inactive)
HT-29
  GI50: > 100 µM (inactive)
SF-539
  GI50: 34.2 µM (inactive)
MOLT-4
  GI50: 45.3 µM (inactive)
A549
  GI50: 26.5 µM (inactive)
KM12
  GI50: 21.4 µM (inactive)
SK-MEL-5
  GI50: 26.1 µM (inactive)
RPMI-8226
  GI50: 61.8 µM (inactive)
HOP-92
  GI50: > 100 µM (inactive)
COLO 205
  GI50: 23.3 µM (inactive)
SK-MEL-2
  GI50: > 100 µM (inactive)
RXF 631
  GI50: > 100 µM (inactive)
NCI-H522
  GI50: 47.2 µM (inactive)
SK-MEL-28
  GI50: > 100 µM (inactive)
ACHN
  GI50: 9.14 µM (inactive)
SW-620
  GI50: > 100 µM (inactive)
SK-OV-3
  GI50: > 100 µM (inactive)
UACC-62
  GI50: 4.95 µM (inactive)
LXFL 529
  GI50: 5.47 µM (inactive)
SF-268
  GI50: 54 µM (inactive)
786-0
  GI50: > 100 µM (inactive)
M14
  GI50: 6.47 µM (inactive)
NCI-H23
  GI50: > 100 µM (inactive)
HL-60
  GI50: 12.8 µM (inactive)
SNB-78
  GI50: > 100 µM (inactive)
RXF 393
  GI50: > 100 µM (inactive)
A498
  GI50: > 100 µM (inactive)
OVCAR-3
  GI50: > 100 µM (inactive)
CCRF-CEM
  GI50: 30 µM (inactive)
HOP-62
  GI50: 67.9 µM (inactive)
KM-20L2
  GI50: 13.9 µM (inactive)
UACC-257
  GI50: 21.9 µM (inactive)

## CC1(c2cccc3ccccc23)OC(=O)c2ccccc21 (configuration not stated)
Malme-3M
  GI50: 20.7 µM (inactive)
K562
  GI50: 12.8 µM (inactive)
DMS-273
  GI50: 10.8 µM (inactive)
HCT-15
  GI50: 18.6 µM
SNB-75
  GI50: 10 µM (inactive)
XF498
  GI50: 18.2 µM (inactive)
M19-MEL
  GI50: 21.3 µM (inactive)
SF-295
  GI50: 17.9 µM (inactive)
DLD-1
  GI50: 22.5 µM (inactive)
TK-10
  GI50: 70.6 µM (inactive)
NCI-H460
  GI50: 21.1 µM (inactive)
IGROV-1
  GI50: 19.2 µM (inactive)
SNB-19
  GI50: 30.1 µM (inactive)
HCT-116
  GI50: 16.9 µM (inactive)
OVCAR-5
  GI50: 57.1 µM (inactive)
HCC 2998
  GI50: 15.7 µM (inactive)
LOX IMVI
  GI50: 19.3 µM (inactive)
U-251
  GI50: 20 µM (inactive)
EKVX
  GI50: 30.1 µM (inactive)
OVCAR-8
  GI50: 28.1 µM (inactive)
DMS-114
  GI50: 13.4 µM (inactive)
HT-29
  GI50: 20.7 µM (inactive)
SF-539
  GI50: 14.6 µM (inactive)
MOLT-4
  GI50: 15.1 µM (inactive)
A549
  GI50: 16.7 µM (inactive)
KM12
  GI50: 25.1 µM (inactive)
UO-31
  GI50: 26 µM (inactive)
SK-MEL-5
  GI50: 13.3 µM (inactive)
RPMI-8226
  GI50: 19.6 µM (inactive)
SN12C
  GI50: 22 µM (inactive)
NCI-H226
  GI50: 22.7 µM (inactive)
HOP-92
  GI50: 13.5 µM (inactive)
CAKI-1
  GI50: 15 µM (inactive)
COLO 205
  GI50: 16.2 µM (inactive)
SK-MEL-2
  GI50: 21.3 µM (inactive)
RXF 631
  GI50: 20.2 µM (inactive)
OVCAR-4
  GI50: 27.7 µM (inactive)
NCI-H522
  GI50: 25.2 µM (inactive)
SK-MEL-28
  GI50: 27 µM (inactive)
ACHN
  GI50: 20.3 µM (inactive)
SW-620
  GI50: 21 µM (inactive)
SK-OV-3
  GI50: 32.5 µM (inactive)
UACC-62
  GI50: 12 µM (inactive)
LXFL 529
  GI50: 26.5 µM (inactive)
SF-268
  GI50: 25.5 µM (inactive)
786-0
  GI50: 26.2 µM (inactive)
M14
  GI50: 18.2 µM (inactive)
NCI-H23
  GI50: 16 µM (inactive)
HL-60
  GI50: 13.4 µM (inactive)
SNB-78
  GI50: 41.7 µM (inactive)
RXF 393
  GI50: 18.5 µM (inactive)
A498
  GI50: 21.5 µM (inactive)
OVCAR-3
  GI50: 23.5 µM (inactive)
CCRF-CEM
  GI50: 14.3 µM (inactive)
HOP-62
  GI50: 18.3 µM (inactive)
KM-20L2
  GI50: 17.2 µM (inactive)
UACC-257
  GI50: 22.2 µM (inactive)

## CCCCNC1=C2C(=O)NN=C2CO1
K562
  GI50: > 100 µM (inactive)
DMS-273
  GI50: > 100 µM (inactive)
HCT-15
  GI50: > 100 µM
SNB-75
  GI50: > 100 µM (inactive)
XF498
  GI50: > 100 µM (inactive)
M19-MEL
  GI50: > 100 µM (inactive)
SF-295
  GI50: > 100 µM (inactive)
DLD-1
  GI50: > 100 µM (inactive)
TK-10
  GI50: > 100 µM (inactive)
NCI-H460
  GI50: > 100 µM (inactive)
IGROV-1
  GI50: > 100 µM (inactive)
SNB-19
  GI50: > 100 µM (inactive)
HCT-116
  GI50: > 100 µM (inactive)
OVCAR-5
  GI50: > 100 µM (inactive)
HCC 2998
  GI50: > 100 µM (inactive)
LOX IMVI
  GI50: > 100 µM (inactive)
U-251
  GI50: > 100 µM (inactive)
EKVX
  GI50: > 100 µM (inactive)
OVCAR-8
  GI50: > 100 µM (inactive)
DMS-114
  GI50: > 100 µM (inactive)
HT-29
  GI50: > 100 µM (inactive)
SF-539
  GI50: > 100 µM (inactive)
MOLT-4
  GI50: > 100 µM (inactive)
SR
  GI50: > 100 µM (inactive)
A549
  GI50: > 100 µM (inactive)
KM12
  GI50: > 100 µM (inactive)
UO-31
  GI50: > 100 µM (inactive)
SK-MEL-5
  GI50: > 100 µM (inactive)
RPMI-8226
  GI50: > 100 µM (inactive)
SN12C
  GI50: > 100 µM (inactive)
NCI-H226
  GI50: > 100 µM (inactive)
HOP-92
  GI50: > 100 µM (inactive)
CAKI-1
  GI50: > 100 µM (inactive)
COLO 205
  GI50: > 100 µM (inactive)
SK-MEL-2
  GI50: > 100 µM (inactive)
RXF 631
  GI50: > 100 µM (inactive)
OVCAR-4
  GI50: > 100 µM (inactive)
NCI-H522
  GI50: > 100 µM (inactive)
SK-MEL-28
  GI50: > 100 µM (inactive)
ACHN
  GI50: > 100 µM (inactive)
SW-620
  GI50: > 100 µM (inactive)
SK-OV-3
  GI50: > 100 µM (inactive)
UACC-62
  GI50: > 100 µM (inactive)
LXFL 529
  GI50: 39.8 µM (inactive)
SF-268
  GI50: > 100 µM (inactive)
M14
  GI50: > 100 µM (inactive)
NCI-H23
  GI50: > 100 µM (inactive)
HL-60
  GI50: > 100 µM (inactive)
SNB-78
  GI50: > 100 µM (inactive)
RXF 393
  GI50: > 100 µM (inactive)
A498
  GI50: > 100 µM (inactive)
CCRF-CEM
  GI50: > 100 µM (inactive)
HOP-62
  GI50: > 100 µM (inactive)
KM-20L2
  GI50: > 100 µM (inactive)
UACC-257
  GI50: > 100 µM (inactive)
